# Where two headings read alike, the source gives them in different places.
# Key:
# [1] = molecular target: T1, A1 receptor cell membrane (human origin) (Homo sapiens, UniProt P30542); assay: Competitive inhibition constant (Ki) for adenosine A1 receptor, [3H]-DPCPX radioligand binding; conditions: [3H]-DPCPX 1.0 nM
# T1 construct: purchased PerkinElmer ES-010-M400UA
# T1 sequence (P30542 1-326): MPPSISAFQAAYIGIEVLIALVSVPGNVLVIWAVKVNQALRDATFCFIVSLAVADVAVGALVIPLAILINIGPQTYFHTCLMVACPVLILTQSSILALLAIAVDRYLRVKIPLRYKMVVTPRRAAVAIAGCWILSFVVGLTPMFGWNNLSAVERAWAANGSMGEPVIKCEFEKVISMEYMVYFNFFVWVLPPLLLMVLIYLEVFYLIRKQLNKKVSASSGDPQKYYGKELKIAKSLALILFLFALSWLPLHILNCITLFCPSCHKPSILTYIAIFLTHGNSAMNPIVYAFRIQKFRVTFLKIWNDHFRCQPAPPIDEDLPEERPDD
# Protocol: Experimental Example 1: Determination of the Competitive Inhibition Constant (Ki) for Adenosine A1 and A2a Receptors
# [^3H]-DPCPX: PerkinElmer, NET974250UC
# A1 receptor cell membrane (human origin): PerkinElmer, ES-010-M400UA
# A1 test buffer: 25 mM HEPES, 5 mM MgCl2, 1 mM CaCl2, 100 mM NaCl, pH7.4
# A1 washing buffer: 25 mM HEPES, 5 mM MgCl2, 1 mM CaCl2, 100 mM NaCl, pH7.4
# (§1) The A1 receptor cell membrane was diluted to 0.025 μg/μl with the A1 test buffer and the A2a receptor cell membrane was diluted to 0.05 μg/μl with the A2a test buffer to obtain an A1 receptor cell membrane dilution and an A2a receptor cell membrane dilution.
# (§2) The tested compound and CGS15943 were gradiently diluted with DMSO. 1 μl test compound, high-value control (0.5% DMSO), low-value control (1000 nM CGS15943) were added to a 96-well plate, wherein each well was added with 100 μl A1 receptor cell membrane dilution (containing 2.5 μg cell membrane) to obtain an A1 detection plate. Through the same steps, 100 μl A2a receptor cell membrane dilution (containing 5.0 μg cell membrane) was added to each well of a 96-well plate to obtain an A2a detection plate.
# 100 μl of radioisotope-labelled ligand [^3H]-DPCPX (diluted in A1 test buffer, working concentration 1.0 nM) was added to the A1 detection plate, and 100 μl of radioisotope-labelled ligand [^3H]-CGS-21680 (diluted in A2a test buffer, working concentration 6.0 nM) was added to the A2a detection plate. The A1 and A2a detection plates were sealed with a tap, and incubated at room temperature for 1 h and 2 h, respectively.
# (§3) Unifilter-96 GF/C filter plate was prepared. The Unifilter-96 GF/C filter plate was added with 50 μl 0.3% PEI in each well, and incubated at room temperature for no less than 0.5 h.
# (§4) After the incubation, the reaction solutions in the A1 detection plate and the A2a detection plate were transferred to two Unifilter-96 GF/C filter plates. The filter plates were washed with the corresponding pre-cooled washing buffers, then oven dried. After sealing the bottom of the filter plates, 50 μl of Microscint 20 cocktail scintillation fluid was added. After sealing the top of the filter plates, the plates were read in the counter MicroBeta2 Reader.
# (§5) Data analysis: The inhibition rate was calculated according to the following formula:
# (§6) Inhibition rate %=100−(the signal value of the tested wells−the signal average of the low-value control)/(the signal average of the high-value control−the signal average of the low-value control)*100.
# (§7) IC50 was fitted by EXCEL XLfit. The competitive inhibition constant (Ki) was calculated according to the formula: Ki=IC50/(1+the concentration of the isotope-labelled ligands/Kd); Kd is the dissociation constant of the isotope-labeled ligands.
# [2] = molecular target: T2, A2a receptor cell membrane (human origin) (Homo sapiens, UniProt P29274); assay: Competitive inhibition constant (Ki) for adenosine A2a receptor, [3H]-CGS-21680 radioligand binding; conditions: for Ki(A1)/Ki(A2a): selectivity ratio A1 over A2a
# T2 construct: purchased PerkinElmer RBHA2AM400UA
# Protocol: A2a receptor cell membrane (human origin): PerkinElmer, RBHA2AM400UA
# A2a test buffer: 50 mM Tris-HCl, 10 mM MgCl2, 1 mM EDTA, pH7.4
# as §1, §2
# The A1 and A2a detection plates were sealed with a tap, and incubated at room temperature for 1 h and 2 h, respectively.
# as §3, §4, §5, §6, §7
# [3] = Pharmacokinetics and brain tissue distribution in rats, intragastric administration (PO); type: in vivo, male SD rats; conditions: rat; for bioavailability / AUC(0-t): male, SD, plasma; for bioavailability: po, orally administered 5 mg/kg compared to intravenous 1 mg/kg; for AUC(0-t) / Plasma AUClast/Brain AUClast / AUClast (brain) / capability to penetrate the blood-brain barrier / exposure to brain tissue (in words): PO, 5 mg/kg; for AUC(0-t): read-out: AUClast (plasma); for AUClast (brain): brain tissue homogenate
# Protocol: (§8) Experimental Example 2: Pharmacokinetics (PK) and Brain Tissue Distribution Study in Rats
# (§9) The compounds of the present invention and control compound 2 were administered to male SD rats by intravenous injection (IV) and intragastric administration (PO) respectively to study the pharmacokinetic characteristics.
# (§10) The compounds of the present invention and control compound 2
# (§11) synthesized according to the prior art process) were administered by IV and PO. IV and PO dosages were 1 mg/kg and 5 mg/kg, respectively. The vehicle for the IV administration of the compounds of the present invention was a mixture of 5% DMSO:5% Solutol (polyethylene glycol-15 hydroxystearate):90% physiological saline; and the vehicle for the IV administration of control compound 2 was a mixture of 10% DMSO:10% Solutol (polyethylene glycol-15 hydroxystearate):80% physiological saline. The vehicle for the PO administration of the compounds was 0.5% MC (sodium methylcellulose). Blood was collected before IV administration (0 h), and at time points of 0.083, 0.25, 0.5, 1, 2, 4, 6, 8, 24 h or longer (for example, adding time points of 32 and 48 h) after IV administration; and blood was collected before PO administration (0 h), and at time points of 0.25, 0.5, 1, 2, 4, 6, 8, 24 h or longer (for example, adding time points of 32 and 48 h) after PO administration. EDTA.K2 was used for anticoagulation of the blood, and a plasma sample was obtained after centrifugation. Brain tissue homogenates were taken at 0.25, 0.5, 1, and 8 hours after PO administration (3 animals for each time point). The plasma samples and brain tissue homogenate samples were stored at −80° C. Plasma samples and brain tissue homogenates were subjected to analysis by LC-MS/MS, after protein precipitation. The pharmacokinetic parameters were calculated by using non-compartmental model with WinNonlin 6.3 software.
# [4] = Pharmacokinetics in rats, intravenous injection (IV); type: in vivo; conditions: male, SD, rat, 1 mg/kg, plasma
# Protocol: as §8, §9, §10, §11
# [5] = human A2a receptor cell membrane, [3H]-CGS-21680 6.0 nM, read-out: Ki(A2a)
# T2 sequence (P29274 whole entry): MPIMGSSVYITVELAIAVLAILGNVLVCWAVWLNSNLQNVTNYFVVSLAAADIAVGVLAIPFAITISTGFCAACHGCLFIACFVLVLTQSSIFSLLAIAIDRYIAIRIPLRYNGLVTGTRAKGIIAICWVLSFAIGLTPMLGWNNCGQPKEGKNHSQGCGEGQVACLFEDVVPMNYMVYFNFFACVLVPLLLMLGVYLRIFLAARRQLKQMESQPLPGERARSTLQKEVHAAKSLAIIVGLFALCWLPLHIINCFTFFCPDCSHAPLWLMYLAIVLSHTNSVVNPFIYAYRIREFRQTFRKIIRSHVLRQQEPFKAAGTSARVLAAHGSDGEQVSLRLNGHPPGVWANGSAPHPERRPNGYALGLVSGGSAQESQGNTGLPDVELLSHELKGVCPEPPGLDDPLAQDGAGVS
Compound,Ki [1],"Ki [2, 5]",Ki(A1)/Ki(A2a) [2],bioavailability [3],AUC(0-t) [3],Plasma AUClast/Brain AUClast [3],AUClast (brain) [3],AUC(0-t) [4],Cmax [4],Ki [2],capability to penetrate the blood-brain barrier / exposure to brain tissue (in words) [3]
"Cc1ncnc2ccc(-c3cc(C(N)=O)c(N)nc3-c3ccc(F)cc3)cc12 [Compound 6, 2-amino-6-(4-fluorophenyl)-5-(4-methylquinazolin-6-yl)nicotinamide]",2190 nM,3.4 nM,644.6,73.9%,24700 ng·h/mL,73/1,"337 (h*ng/g,",6660 ng·h/mL,1250 ng/mL,,
"CNC(=O)Cn1cc(-c2cc(-c3ccc4ncnc(C)c4c3)c(-c3ccc(F)cc3)nc2N)cn1 [Compound 19, 2-(4-(2-amino-6-(4-fluorophenyl)-5-(4-methylquinazolin-6-yl)-pyridin-3-yl)-1H-pyrazol-1-yl)-N-methylacetamide]",513 nM,9.9 nM,51.8,95.2%,18800 ng·h/mL,776/1,"24.2 (h*ng/g,",3940 ng·h/mL,2960 ng/mL,,
"Cc1ncnc2ccc(-c3cc(-c4cnn(CCC(N)=O)c4)c(N)nc3-c3ccc(F)cc3)cc12 [Compound 20, 3-(4-(2-amino-6-(4-fluorophenyl)-5-(4-methylquinazolin-6-yl)-pyridin-3-yl)-1H-pyrazol-1-yl)propionamide]",963 nM,,68.8,,1900 ng·h/mL,,undetectable,2530 ng·h/mL,3330 ng/mL,14 nM,only very low exposure to brain tissue
"Cc1ncnc2ccc(-c3cc(-c4cnn(CC(C)(C)O)c4)c(N)nc3-c3ccc(F)cc3)cc12 [Compound 21, 1-(4-(2-amino-6-(4-fluorophenyl)-5-(4-methylquinazolin-6-yl)-pyridin-3-yl)-1H-pyrazol-1-yl)-2-methylpropan-2-ol]",1420 nM,13.2 nM,108.0,68.5%,8010 ng·h/mL,331/1,"24.2 (h*ng/g,",2340 ng·h/mL,1340 ng/mL,,
"Cc1ccnc2ccc(-c3cc(C(N)=O)c(N)nc3-c3ccc(F)cc3)cc12 [Compound 22, 2-amino-6-(4-fluorophenyl)-5-(4-methylquinolin-6-yl)nicotinamide]",106 nM,1.6 nM,66.3,,,,,,,,
"Cc1ncnc2ccc(-c3cc(-n4cc(C(N)=O)cn4)c(N)nc3-c3ccc(F)cc3)cc12 [Compound 24, 1-(2-amino-6-(4-fluorophenyl)-5-(4-methylquinazolin-6-yl)pyridin-3-yl)-1H-pyrazol-4-carboxamide]",3480 nM,23.2 nM,150.0,,,,,,,,
"Cc1ncnc2ccc(-c3cc(-c4nnc(C(N)=O)o4)c(N)nc3-c3ccc(F)cc3)cc12 [Compound 25, 5-(2-amino-6-(4-fluorophenyl)-5-(4-methylquinazolin-6-yl)pyridin-3-yl)-1,3,4-oxadiazol-2-carboxamide]",132 nM,2.3 nM,57.6,,,,,,,,
"Cc1cc(-c2cc(-n3cc(C(N)=O)cn3)c(N)nc2-c2ccc(F)cc2)cc(Cl)n1 [Compound 26, 1-(6-amino-2′-chloro-2-(4-fluorophenyl)-6′-methyl-[3,4′-bipyridine]-5-yl)-1H-pyrazol-4-carboxamide]",4850 nM,104 nM,,,,,,,,,
"Cc1ccnc2ccc(-c3cc(-c4nnc(C(N)=O)o4)c(N)nc3-c3ccc(F)cc3)cc12 [Compound 29, 5-(2-amino-6-(4-fluorophenyl)-5-(4-methylquinolin-6-yl)pyridin-3-yl)-1,3,4-oxadiazol-2-carboxamide]",30 nM,1.2 nM,25.0,,,,,,,,
"Cc1cc(-c2cc(-c3cnn(CCC(N)=O)c3)c(N)nc2-c2ccc(F)cc2)cc(Cl)n1 [Compound 30, 3-(4-(6-amino-2′-chloro-2-(4-fluorophenyl)-6′-methyl-[3,4′-bipyridine]-5-yl)-1H-pyrazol-1-yl)propionamide]",1930 nM,,38.0,,,,,,,50.8 nM,
"Cc1ccnc2ccc(-c3cc(-c4cnn(CCC(N)=O)c4)c(N)nc3-c3ccc(F)cc3)cc12 [Compound 31, 3-(4-(2-amino-6-(4-fluorophenyl)-5-(4-methylquinolin-6-yl)pyridin-3-yl)-1H-pyrazol-1-yl)propionamide]",146 nM,,91.0,,,,,,,1.6 nM,
"NC(=O)c1cc(-c2ccncc2)c(-c2cccc(F)c2)nc1N [Control compound 1, reference compound]",25.7 nM,138 nM,0.2,,,,,,,,
"Cc1ncnc2ccc(-c3nnc(N)nc3-c3ccc(F)cc3)cc12 [Control compound 2, reference compound]",,,,46.5%,1200 ng·h/mL,,"1013 (h*ng/g,",518 ng·h/mL,913 ng/mL,,significantly stronger
